Source: patent publication US12036226B2, “Methods of treating subjects having diabetes with chronic kidney disease” (Poxel SA, priority 2018, dated 2024)

Tested on: subjects with T2DM and CKD stage 3B or 4
Experiment: Phase 1b 28-day safety, tolerability and PK study in subjects with T2DM and CKD stage 3B or 4
Format: in vivo
Description: An Open Label, Parallel Arm Study to Assess the Safety, Tolerability, and Pharmacokinetics of Imeglimin in Subjects with Type 2 Diabetes Mellitus (T2DM) and Moderate to Severe Chronic Kidney Disease (CKD)
This Phase 1b study is to assess the safety, tolerability and pharmacokinetics (PK) of imeglimin in subjects with T2DM and CKD stage 3B or 4.
Subjects will be randomly allocated to receive one of three treatments or placebo.
Doses which are below the minimally acceptable doses are acceptable if stable for 12 weeks prior to Screening as per prescribing information. […] Primary Outcome Measures […]
Safety can be evaluated by assessment of clinical laboratory tests, physical examinations, vital signs measurements, and ECG readings at various time points during the study, and by the documentation of AEs.
The incidence of treatment-emergent adverse events (TEAE) will be summarized by treatment.
Plasma lactate will be summarized descriptively by absolute value at each visit by treatment group, together with the corresponding changes from baseline.
Pharmacokinetics (PK) data can be descriptively summarized by treatment group. PK parameters will be determined using noncompartmental methods. […] Steady-state can be evaluated using the trough concentration data.

C[C@H]1N=C(N(C)C)N=C(N)N1 [imeglimin, (6R)—N^2, N^2,6-trimethyl-3,6-dihydro-1,3,5-triazine-2,4-diamine]
Subjects with any TEAE (500 mg BID, CKD3b (n = 8)): 2 (25%) n, %
Subjects with any TEAE by maximum severity: Grade 1 - Mild (500 mg BID, CKD3b (n = 8)): 1 (13%) n, %
Subjects with any TEAE by maximum severity: Grade 2 - Moderate (500 mg BID, CKD3b (n = 8)): 1 (13%) n, %
Subjects with any TEAE by maximum severity: Grade 3 - Severe (500 mg BID, CKD3b (n = 8)): 0 n, %
Subjects with any TEAE by maximum severity: Grade 4 - Life-threatening (500 mg BID, CKD3b (n = 8)): 0 n, %
Subjects with any TEAE by maximum severity: Grade 5 - Death (500 mg BID, CKD3b (n = 8)): 0 n, %
Subjects with any study drug related TEAE (500 mg BID, CKD3b (n = 8)): 0 n, %
Subjects with any study drug related TEAE: Grade 1 - Mild (500 mg BID, CKD3b (n = 8)): 0 n, %
Subjects with any study drug related TEAE: Grade 2 - Moderate (500 mg BID, CKD3b (n = 8)): 0 n, %
Subjects with any study drug related TEAE: Grade 3 - Severe (500 mg BID, CKD3b (n = 8)): 0 n, %
Subjects with any study drug related TEAE: Grade 4 - Life-threatening (500 mg BID, CKD3b (n = 8)): 0 n, %
Subjects with any study drug related TEAE: Grade 5 - Death (500 mg BID, CKD3b (n = 8)): 0 n, %
TEAE: Gastrointestinal disorders (500 mg BID, CKD3b (n = 8)): 1 (13%) n, %
Subjects with any TEAE (500 mg BID, CKD4 (n = 5)): 1 (20%) n, %
Subjects with any TEAE by maximum severity: Grade 1 - Mild (500 mg BID, CKD4 (n = 5)): 0 n, %
Subjects with any TEAE by maximum severity: Grade 2 - Moderate (500 mg BID, CKD4 (n = 5)): 1 (20%) n, %
Subjects with any TEAE by maximum severity: Grade 3 - Severe (500 mg BID, CKD4 (n = 5)): 0 n, %
Subjects with any TEAE by maximum severity: Grade 4 - Life-threatening (500 mg BID, CKD4 (n = 5)): 0 n, %
Subjects with any TEAE by maximum severity: Grade 5 - Death (500 mg BID, CKD4 (n = 5)): 0 n, %
Subjects with any study drug related TEAE (500 mg BID, CKD4 (n = 5)): 0 n, %
Subjects with any study drug related TEAE: Grade 1 - Mild (500 mg BID, CKD4 (n = 5)): 0 n, %
Subjects with any study drug related TEAE: Grade 2 - Moderate (500 mg BID, CKD4 (n = 5)): 0 n, %
Subjects with any study drug related TEAE: Grade 3 - Severe (500 mg BID, CKD4 (n = 5)): 0 n, %
Subjects with any study drug related TEAE: Grade 4 - Life-threatening (500 mg BID, CKD4 (n = 5)): 0 n, %
Subjects with any study drug related TEAE: Grade 5 - Death (500 mg BID, CKD4 (n = 5)): 0 n, %
TEAE: Gastrointestinal disorders (500 mg BID, CKD4 (n = 5)): 0 n, %
Subjects with any TEAE (1000 mg BID, CKD3b (n = 6)): 4 (67%) n, %
Subjects with any TEAE by maximum severity: Grade 1 - Mild (1000 mg BID, CKD3b (n = 6)): 2 (33%) n, %
Subjects with any TEAE by maximum severity: Grade 2 - Moderate (1000 mg BID, CKD3b (n = 6)): 2 (33%) n, %
Subjects with any TEAE by maximum severity: Grade 3 - Severe (1000 mg BID, CKD3b (n = 6)): 0 n, %
Subjects with any TEAE by maximum severity: Grade 4 - Life-threatening (1000 mg BID, CKD3b (n = 6)): 0 n, %
Subjects with any TEAE by maximum severity: Grade 5 - Death (1000 mg BID, CKD3b (n = 6)): 0 n, %
Subjects with any study drug related TEAE (1000 mg BID, CKD3b (n = 6)): 2 (33%) n, %
Subjects with any study drug related TEAE: Grade 1 - Mild (1000 mg BID, CKD3b (n = 6)): 1 (17%) n, %
Subjects with any study drug related TEAE: Grade 2 - Moderate (1000 mg BID, CKD3b (n = 6)): 1 (17%) n, %
Subjects with any study drug related TEAE: Grade 3 - Severe (1000 mg BID, CKD3b (n = 6)): 0 n, %
Subjects with any study drug related TEAE: Grade 4 - Life-threatening (1000 mg BID, CKD3b (n = 6)): 0 n, %
Subjects with any study drug related TEAE: Grade 5 - Death (1000 mg BID, CKD3b (n = 6)): 0 n, %
TEAE: Gastrointestinal disorders (1000 mg BID, CKD3b (n = 6)): 1 (17%) n, %
Subjects with any TEAE (1000 mg BID, CKD4 (n = 7)): 4 (57%) n, %
Subjects with any TEAE by maximum severity: Grade 1 - Mild (1000 mg BID, CKD4 (n = 7)): 2 (29%) n, %
Subjects with any TEAE by maximum severity: Grade 2 - Moderate (1000 mg BID, CKD4 (n = 7)): 2 (29%) n, %
Subjects with any TEAE by maximum severity: Grade 3 - Severe (1000 mg BID, CKD4 (n = 7)): 0 n, %
Subjects with any TEAE by maximum severity: Grade 4 - Life-threatening (1000 mg BID, CKD4 (n = 7)): 0 n, %
Subjects with any TEAE by maximum severity: Grade 5 - Death (1000 mg BID, CKD4 (n = 7)): 0 n, %
Subjects with any study drug related TEAE (1000 mg BID, CKD4 (n = 7)): 1 (14%) n, %
Subjects with any study drug related TEAE: Grade 1 - Mild (1000 mg BID, CKD4 (n = 7)): 1 (14%) n, %
Subjects with any study drug related TEAE: Grade 2 - Moderate (1000 mg BID, CKD4 (n = 7)): 0 n, %
Subjects with any study drug related TEAE: Grade 3 - Severe (1000 mg BID, CKD4 (n = 7)): 0 n, %
Subjects with any study drug related TEAE: Grade 4 - Life-threatening (1000 mg BID, CKD4 (n = 7)): 0 n, %
Subjects with any study drug related TEAE: Grade 5 - Death (1000 mg BID, CKD4 (n = 7)): 0 n, %
TEAE: Gastrointestinal disorders (1000 mg BID, CKD4 (n = 7)): 2 (29%) n, %
Subjects with any TEAE (1500 mg QD, CKD3b (n = 17)): 4 (57%) n, %
Subjects with any TEAE by maximum severity: Grade 1 - Mild (1500 mg QD, CKD3b (n = 17)): 3 (43%) n, %
Subjects with any TEAE by maximum severity: Grade 2 - Moderate (1500 mg QD, CKD3b (n = 17)): 1 (14%) n, %
Subjects with any TEAE by maximum severity: Grade 3 - Severe (1500 mg QD, CKD3b (n = 17)): 0 n, %
